{"source": "patent EP0565593B1", "about": "“REDUCING PESTICIDAL INTERACTIONS IN CROPS” (priority 1990, dated 1992)", "key": {"Shattercane (SHCA)": {"test_system": "Shattercane (SHCA)", "assay_type": "in vivo"}, "Corn": {"test_system": "Corn", "assay": "Greenhouse test Procedure VI: biocide and antidote in furrow, herbicide PPI in cover layer (Examples 43-47, 59-61; Tables 42-46, 58-60)", "assay_type": "in vivo", "details": "Antidote + Biocide No. 1 in furrow", "how_it_was_run": "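Corn seed furrows given granular biocide (COUNTER 15G, 1.1 mg a.i./cm row) and antidote (0.37 mg a.i./cm row); herbicide in acetone or acetone/water incorporated into cover-layer soil (PPI). Duplicate pots in greenhouse, subirrigated plus overhead watering; corn injury observed, in some series thirteen days after PPI, against untreated, herbicide and herbicide+biocide controls.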"}, "Velvetleaf (VELE)": {"test_system": "Velvetleaf (VELE)", "assay": "Greenhouse test Procedure VI (Examples 59-61; Tables 58-60)", "assay_type": "in vivo, Abutilon theophrasti", "details": "Antidote + Biocide No. 1 in furrow", "text": "This procedure describes interaction among herbicide, biocide and antidote when the herbicide is incorporated in a soil cover layer and the biocide and the antidote are applied in a soil furrow containing crop seed before emergence of the crop. The soil and seeding depth were described in Procedure IV. A first container was designated as an untreated control, a second container was designated as a herbicide control, a third container was designated as a herbicide + biocide control and a fourth container as a herbicide + biocide + antidote test container. The biocide and antidote were formulated as granules. The biocide was applied to the soil furrows of the third and fourth containers at an application rate of 1.1 mg of active compound per cm of row. The antidote was applied to the soil furrow of the fourth container at an application rate of 0.37 mg of active compound per cm of row. A measured amount of the herbicide dispersed or dissolved in acetone was applied to a measured quantity of soil. The quantity of soil treated with the herbicide was thoroughly mixed to incorporate the herbicide. Samples of this soil were used to cover the seed beds of the second, third and fourth containers. For each test series, the seed bed of the first container was likewise covered by a soil layer not treated with herbicide and without biocide or antidote in the soil furrow.\nThe containers were then placed on a bench in a greenhouse. Watering was by subirrigation plus overhead irrigation after the plants emerged. All treatments were run in duplicate. Plant response was observed according to Procedure IV. Variations in this procedure will be noted in the examples.\nThe procedure used in this example involved the PPI application of biocide and safener as described in general Procedure VI above. The \"primary\" herbicide in this test was MON-12000 (Herbi-cide No. 1) in admixture with other herbicides designated as \"co-herbicides\", which included LASSO® (co-herbicide B); DUAL® (C); acetochlor (A); EPTAM® (D); butylate (E) and PURSUIT® (K).\nThe in-furrow treatments with blended COUNTER 15G and antidote mixtures was as described in above examples. MON-12000 and the co-herbicides were formulated in acetone and applied as tank mixtures, incorporated into Dupo silt loam soil with a rotary drum mixer. Subsamples were used to cover seeded and in-furrow treated 10.2 cm pots. Pots were placed on greenhouse benches and subirrigated. Plant responses were observed thirteen days after PPI initiation. Test results (average of two replications) are shown in Table 58, wherein giant foxtail (GIFT) was used in place of shattercane.\nThis test was conducted in the same manner used in Example 59. All biocide and antidote components were the same and in these tests XRD-498 (Herbicide No. 21) was the prime herbicide. Co-herbicides are shown in Table 59 together with test data.\nIn one other test conducted as described in the preceding examples in this series of tests, the herbicide PURSUIT® was used as the primary herbicide (in the context of this invention) together with the same insecticide and safeners as above and the co-herbicides shown in Table 60, together with test results."}, "[1]": {"details": "Herbicide No. 11 0.0044 Kg/Ha PPI"}, "[2]": {"details": "Herbicide No. 12 0.0044 Kg/Ha PPI"}, "[3]": {"details": "Herbicide No. 13 0.0011 Kg/Ha PPI"}, "[4]": {"details": "Herbicide No. 13 0.0022 Kg/Ha PPI"}, "[5]": {"details": "Herbicide No. 14 0.07 Kg/Ha PPI"}, "[6]": {"details": "Herbicide No. 16 0.07 Kg/Ha PPI, 13 days"}, "[7]": {"details": "Herbicide No. 17 0.14 Kg/Ha PPI, 13 days"}, "[8]": {"details": "Herbicide No. 18 0.04 Kg/Ha PPI, 13 days"}, "[9]": {"details": "Herbicide No. 20 1.12 Kg/Ha PPI, 13 days"}, "[10]": {"details": "Herbicide No. 22 0.28 Kg/Ha PPI, 13 days"}, "[11]": {"details": "Herbicide No. 24 0.14 Kg/Ha PPI, 13 days"}, "[12]": {"details": "Herbicide No. 25 0.14 Kg/Ha PPI, 13 days"}, "[13]": {"details": "Herbicide No. 26 2.24 Kg/Ha PPI, 13 days"}, "[14]": {"details": "Herbicide No. 28 0.04 Kg/Ha PPI, 13 days"}}, "note": "Like-named read-outs stand apart in the source and are kept apart here."}
{"compound": "CC1(C)OC(c2ccco2)CN1C(=O)C(Cl)Cl", "note": "(stereo not shown) [compound 1]", "values": [{"measurement": "% Inhibition 5 DAP SHCA", "setting": "Shattercane (SHCA); Antidote 4.48 + Biocide No. 1 8.96 Kg/Ha PPI, Herb. No. 8 0.07, 5 DAP, before herbicide application", "value": 0, "unit": "%"}, {"measurement": "% Inhibition 13 DAP SHCA", "setting": "Shattercane (SHCA); Antidote 4.48 + Biocide No. 1 8.96 Kg/Ha PPI, Herb. No. 8 0.07 POE, 13 DAP", "value": 80, "unit": "%"}, {"measurement": "% Inhibition SHCA", "setting": "Shattercane (SHCA); Antidote 4.48 + Biocide No. 1 8.96 Kg/Ha PPI, Herbicide No. 7 0.28 POE, 13 days after planting", "value": 75, "unit": "%"}, {"measurement": "% Inhibition SHCA", "setting": "Shattercane (SHCA); Table 14: Herbicide No. 7 (ACCENT) 0.84 Kg/Ha POE + Biocide No. 2 8.96 Kg/Ha PPI + antidote 4.48 Kg/Ha PPI, 13 days after planting, 8 days after herbicide", "value": 70, "unit": "%"}, {"measurement": "% Inhibition SHCA", "setting": "Shattercane (SHCA); […], 13 days after planting, 8 days after herbicide", "value": 90, "unit": "%"}, {"measurement": "% Inhibition SHCA", "setting": "Shattercane (SHCA); […], observed 9 days later (Table 29)", "value": 70, "unit": "%"}, {"measurement": "% Inhibition SHCA", "setting": "Shattercane (SHCA); […], observed 9 days later (Table 30)", "value": 30, "unit": "%"}, {"measurement": "% Inhibition SHCA", "setting": "Shattercane (SHCA); […], observed 10 days after herbicide application", "value": 55, "unit": "%"}, {"measurement": "% Inhibition 5 DAP SHCA", "setting": "Shattercane (SHCA); in vivo", "value": 20, "unit": "%"}, {"measurement": "% Inhibition 13 DAP SHCA", "setting": "Shattercane (SHCA); in vivo", "value": 75, "unit": "%"}, {"measurement": "% Inhibition Corn", "setting": "Corn; Herbicide No. 6 0.14 Kg/Ha PPI", "value": 15, "unit": "%"}, {"measurement": "% Inhibition Corn", "setting": "Corn; [1]", "value": 15, "unit": "%"}, {"measurement": "% Inhibition Corn", "setting": "Corn; [2]", "value": 20, "unit": "%"}, {"measurement": "% Inhibition Corn", "setting": "Corn; [3]", "value": 40, "unit": "%"}, {"measurement": "% Inhibition Corn", "setting": "Corn; [4]", "value": 70, "unit": "%"}, {"measurement": "% Inhibition Corn", "setting": "Corn; [5]", "value": 10, "unit": "%"}, {"measurement": "% Inhibition Corn", "setting": "Corn; [6]", "value": 45, "unit": "%"}, {"measurement": "% Inhibition Corn", "setting": "Corn; [7]", "value": 45, "unit": "%"}, {"measurement": "% Inhibition Corn", "setting": "Corn; [8]", "value": 10, "unit": "%"}, {"measurement": "% Inhibition Corn", "setting": "Corn; [9]", "value": 25, "unit": "%"}, {"measurement": "% Inhibition Corn", "setting": "Corn; [10]", "value": 5, "unit": "%"}, {"measurement": "% Inhibition Corn", "setting": "Corn; [11]", "value": 25, "unit": "%"}, {"measurement": "% Inhibition Corn", "setting": "Corn; [12]", "value": 15, "unit": "%"}, {"measurement": "% Inhibition Corn", "setting": "Corn; [13]", "value": 20, "unit": "%"}, {"measurement": "% Inhibition Corn", "setting": "Corn; [14]", "value": 20, "unit": "%"}, {"measurement": "% Inhibition VELE", "setting": "Velvetleaf (VELE); Herbicide No. 6 0.14 Kg/Ha PPI", "value": 70, "unit": "%"}, {"measurement": "% Inhibition VELE", "setting": "Velvetleaf (VELE); [1]", "value": 75, "unit": "%"}, {"measurement": "% Inhibition VELE", "setting": "Velvetleaf (VELE); [2]", "value": 55, "unit": "%"}, {"measurement": "% Inhibition VELE", "setting": "Velvetleaf (VELE); [3]", "value": 25, "unit": "%"}, {"measurement": "% Inhibition VELE", "setting": "Velvetleaf (VELE); [4]", "value": 60, "unit": "%"}, {"measurement": "% Inhibition VELE", "setting": "Velvetleaf (VELE); [5]", "value": 85, "unit": "%"}, {"measurement": "% Inhibition VELE", "setting": "Velvetleaf (VELE); [6]", "value": 60, "unit": "%"}, {"measurement": "% Inhibition VELE", "setting": "Velvetleaf (VELE); [7]", "value": 80, "unit": "%"}, {"measurement": "% Inhibition VELE", "setting": "Velvetleaf (VELE); [8]", "value": 50, "unit": "%"}, {"measurement": "% Inhibition VELE", "setting": "Velvetleaf (VELE); [9]", "value": 95, "unit": "%"}, {"measurement": "% Inhibition VELE", "setting": "Velvetleaf (VELE); [10]", "value": 80, "unit": "%"}, {"measurement": "% Inhibition VELE", "setting": "Velvetleaf (VELE); [11]", "value": 90, "unit": "%"}, {"measurement": "% Inhibition VELE", "setting": "Velvetleaf (VELE); [12]", "value": 75, "unit": "%"}, {"measurement": "% Inhibition VELE", "setting": "Velvetleaf (VELE); [13]", "value": 65, "unit": "%"}, {"measurement": "% Inhibition VELE", "setting": "Velvetleaf (VELE); [14]", "value": 90, "unit": "%"}]}
